Assay [1] concerns SETFA (Setaria faberi). Put plainly: Greenhouse herbicidal test, post-emergence, SETFA. It is filed as in vivo. To be noted: application rate 1 kg/ha, scale 0 to 100, read-out: herbicidal activity against SETFA. An excerpt:
(§1) The seeds of the test plants were sown separately for each species. For the post-emergence treatment, the test plants were first grown to a height of 2 to 5 cm, depending on the plant habit, and only then treated with the active ingredients which had been suspended or emulsified in water. For this purpose, the test plants were either sown directly and grown in the same containers, or they were first grown separately as seedlings and transplanted into the test containers a few days prior to treatment. Depending on the species, the plants were kept at 10-25° C. or 20-35° C. The test period extended over 8 to 9 days. During this time, the plants were tended, and their response to the individual treatments was evaluated. Evaluation was carried out using a scale from 0 to 100. 100 means no emergence of the plants, or complete destruction of at least the aerial moieties, and 0 means no damage, or normal course of growth. A good herbicidal activity is given at values of at least 70 and a very good herbicidal activity is given at values of at least 85. The plants used in the greenhouse experiments belonged to the following species: [table]

In assay [2] the test system is AMARE (Amaranthus retroflexus). Put plainly: Greenhouse herbicidal test, post-emergence, AMARE. The following applies: application rate 1 kg/ha; for pest or weed control at 1000 g/ha: Amaranthus retroflexus, scale 0 to 100, read-out: herbicidal activity against AMARE; for herbicidal activity against AMARE: scale 0 to 100. It is filed as in vivo.
Excerpt: as §1

The target of assay [3] is Arabidopsis thaliana SHMT. Put plainly: SHMT activity assay (ED50 SHMT), coupled with N5,N10-CH2-THF dehydrogenase, NADH at 340 nm. It is filed as biochemical. The following applies: values given as upper bounds. An outline of the steps:
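His-tagged SHMT purified on Ni-NTA. NADH formation followed at 340 nm for 30 min; ED50 from inhibition of initial velocity.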

Assay [4] has as its system CHEAL (Chenopodium album). Put plainly: Greenhouse herbicidal test, post-emergence, CHEAL. The class given is in vivo. To be noted: application rate 1 kg/ha; for pest or weed control at 1000 g/ha: Chenopodium album, scale 0 to 100, read-out: herbicidal activity against CHEAL; for herbicidal activity against CHEAL: scale 0 to 100.
Excerpt: as §1

The test system of assay [5] is SETFA, AMARE, POLCO, CHEAL, GALAP. Put plainly: Greenhouse herbicidal test, post-emergence, weed panel. The following applies: application rate 1 kg/ha, scale 0 to 100. The class given is in vivo.
Excerpt: as §1

Assay [6] has as its system POLCO (Poligonum convolvulus). Put plainly: Greenhouse herbicidal test, post-emergence, POLCO. The class given is in vivo. The following applies: application rate 1 kg/ha; for pest or weed control at 1000 g/ha: Poligonum convolvulus, scale 0 to 100, read-out: herbicidal activity against POLCO; for herbicidal activity against POLCO: scale 0 to 100.
Excerpt: as §1

Setting [7] is: Table 2, Arabidopsis thaliana SHMT enzyme assay.

pEC50: −log10 of the molar value. Some results are limits rather than exact numbers.

Broadly, the pEC50 is −log10 of the EC50, conventionally taken in molar units. Read a low pEC50 as a high EC50. `CC(=O)NCC(=O)N(C)c1cc(C#N)cc(C2(C3CCC3)C(C#N)=C(N)Oc3[nH]nc(C)c32)c1` (centres unmarked) [Compound 2.709]: the results for the pest or weed control at 1000 g/ha in assay [1], in assay [2] and in assay [4] were at least 70%, at least 85% and at least 85%, respectively. Also, the pEC50 in assay [3] (Arabidopsis thaliana SHMT enzyme assay) is over 7.00. The “herbicidal activity against at least three of the weeds SETFA, AMARE, POLCO, CHEAL, GALAP” value (shortened to “herbicidal activity against … GALAP”) in assay [5] is on record as “good or very good”.
For the molecule `Cc1n[nH]c2c1C(c1cc(Cl)cc(Cl)c1)(C(C)C)C(C#N)=C(N)O2` (racemic) [Compound 2.112], the “herbicidal activity against … GALAP” value in assay [5] is reported as “good or very good”.
With `Cc1n[nH]c2c1C(c1cc(C(F)(F)F)cc(C(F)(F)F)c1)(C1(F)CC1)C(C#N)=C(N)O2` (centres unmarked) [Compound 2.247], the pest or weed control at 1000 g/ha in assay [2], in assay [4] and in assay [6] was at least 85% throughout. Moreover, the pEC50 in assay [3] (setting [7]) was over 8.00. In addition, the “herbicidal activity against … GALAP” value in assay [5] is reported as “good or very good”.
In assay [3] (Table 2), `CCCC(=O)N(C)c1cc(C#N)cc(C2(C3CCC3)C(C#N)=C(N)Oc3[nH]nc(C)c32)c1` (centres unmarked) [Compound 2.612] gave a pEC50 of over 8.00. In assay [5], the “herbicidal activity against … GALAP” value is listed as “good or very good”.
Consider `COCCOCC(=O)N(C)c1cc(C#N)cc(C2(C3CCC3)C(C#N)=C(N)Oc3[nH]nc(C)c32)c1` (centres unmarked) [Compound 2.616], for which the pest or weed control at 1000 g/ha in assay [2] and in assay [4] was at least 85% each time. In addition, in assay [3] (Table 2), the pEC50 is over 8.00. For the same molecule, the “herbicidal activity against … GALAP” value in assay [5] is reported as “good or very good”.
Turning to `CC(=O)N(C)c1cc(C#N)cc(C2(C3CCC3)C(C#N)=C(N)Oc3[nH]nc(C)c32)c1` (racemic) [Compound 2.414], in assay [5], the “herbicidal activity against … GALAP” value was “good or very good”.
For `Cc1n[nH]c2c1C(c1cc(C#N)cc(C(F)(F)F)c1)(C1CCC1)C(C#N)=C(N)O2` (centres unmarked) [Compound 2.282], the pest or weed control at 1000 g/ha in assay [2], in assay [4] and in assay [6] was at least 85% in each case. In addition, in assay [3] (setting [7]), the pEC50 is over 8.00. Besides, in assay [5], the “herbicidal activity against … GALAP” value is “good or very good”.
Turning to `Cc1n[nH]c2c1C(c1cc(C#N)cc(C(F)(F)F)c1)(C1(F)CC1)C(C#N)=C(N)O2` (racemic) [Compound 2.404], the “herbicidal activity against … GALAP” value in assay [5] was “good or very good”.
In the case of `Cc1n[nH]c2c1C(c1cc(C#N)cc(C#N)c1)(C1CCC1)C(C#N)=C(N)O2` (centres unmarked) [Compound 2.283], the pest or weed control at 1000 g/ha in assay [2], in assay [4] and in assay [6] was at least 85% throughout. Moreover, the pEC50 in assay [3] (setting [7]) was over 7.00. Further, the “herbicidal activity against … GALAP” value in assay [5] is “good or very good”.
In the case of `Cc1n[nH]c2c1C(c1cc(C#N)cc(N(C)S(C)(=O)=O)c1)(C1CCC1)C(C#N)=C(N)O2` (centres unmarked) [Compound 2.617], the pest or weed control at 1000 g/ha in assay [2] and in assay [4] was at least 85% each time. The molecule further had a pEC50 in assay [3] (Table 2) of over 8.00. Moreover, the “herbicidal activity against … GALAP” value in assay [5] is listed as “good or very good”.
As for `Cc1n[nH]c2c1C(c1cc(C#N)cc(C(F)(F)F)c1)(C1CC1)C(C#N)=C(N)O2` (centres unmarked) [Compound 2.362], the pest or weed control at 1000 g/ha in assay [2], in assay [4] and in assay [6] was at least 85% each time. In addition, in assay [3] (setting [7]), the pEC50 is over 8.00. Also, in assay [5], the “herbicidal activity against … GALAP” value is “good or very good”.
Turning to `CC(=O)N(C)c1cc(C(F)(F)F)cc(C2(C3(F)CC3)C(C#N)=C(N)Oc3[nH]nc(C)c32)c1` (racemic) [Compound 2.439], the “herbicidal activity against … GALAP” value in assay [5] is on record as “good or very good”.
For `Cc1n[nH]c2c1C(c1cc(Br)cc(C#N)c1)(C1CCC1)C(C#N)=C(N)O2` (centres unmarked) [Compound 2.281], the pest or weed control at 1000 g/ha in assay [2], in assay [4] and in assay [6] was at least 85% throughout. In assay [3] (setting [7]), this molecule showed a pEC50 of over 8.00. In addition, in assay [5], the “herbicidal activity against … GALAP” value was “good or very good”.
In the case of `CCC(=O)N(C)c1cc(C#N)cc(C2(C3CCC3)C(C#N)=C(N)Oc3[nH]nc(C)c32)c1` (centres unmarked) [Compound 2.611], the pest or weed control at 1000 g/ha in assay [2], in assay [4] and in assay [6] was at least 85% each time. This molecule showed a pEC50 in assay [3] (Table 2) of over 8.00. For the same molecule, the “herbicidal activity against … GALAP” value in assay [5] is listed as “good or very good”.
Consider `Cc1n[nH]c2c1C(c1cc(C#N)cc(OC(F)(F)F)c1)(C1CCC1)C(C#N)=C(N)O2` (racemic) [Compound 2.417], for which the “herbicidal activity against … GALAP” value in assay [5] is recorded as “good or very good”.
In the case of `Cc1n[nH]c2c1C(c1cc(C#N)cc(N(C)C(=O)CC#N)c1)(C1CCC1)C(C#N)=C(N)O2` (centres unmarked) [Compound 2.635], the pest or weed control at 1000 g/ha in assay [2] and in assay [4] was at least 85% in each case. This molecule had a pEC50 in assay [3] (Table 2) of over 8.00. Also, the “herbicidal activity against … GALAP” value in assay [5] was “good or very good”.
With `Cc1n[nH]c2c1C(c1cc(C#N)cc(C#N)c1)(C1(F)CCC1)C(C#N)=C(N)O2` (centres unmarked) [Compound 2.569], the pest or weed control at 1000 g/ha in assay [2], in assay [4] and in assay [6] was at least 85% in each case. Further, in assay [3] (Table 2), the pEC50 is over 7.00. Further, in assay [5], the “herbicidal activity against … GALAP” value is “good or very good”.
With `Cc1n[nH]c2c1C(c1cc(-c3nnnn3C)cc(C(F)(F)F)c1)(C1CCC1)C(C#N)=C(N)O2` (racemic) [Compound 2.399], the “herbicidal activity against AMARE” value in assay [2] is recorded as “very good (a very good herbicidal activity is given at values of at least 85)”. Besides, in assay [4], the “herbicidal activity against CHEAL” value is “very good (a very good herbicidal activity is given at values of at least 85)”. Also, in assay [5], the “herbicidal activity against … GALAP” value is given as “good or very good”. In addition, in assay [6], the “herbicidal activity against POLCO” value is on record as “good (A good herbicidal activity is given at values of at least 70)”.
Turning to `Cc1n[nH]c2c1C(c1cc(Cl)cc(C#N)c1)(C1CCC1)C(C#N)=C(N)O2` (centres unmarked) [Compound 2.280], the pest or weed control at 1000 g/ha in assay [2], in assay [4] and in assay [6] was at least 85% throughout. This molecule gave a pEC50 in assay [3] (setting [7]) of over 8.00. In addition, in assay [5], the “herbicidal activity against … GALAP” value is recorded as “good or very good”.
For `COCC(=O)N(C)c1cc(C#N)cc(C2(C3CCC3)C(C#N)=C(N)Oc3[nH]nc(C)c32)c1` (centres unmarked) [Compound 2.615], the pest or weed control at 1000 g/ha in assay [2], in assay [4] and in assay [6] was at least 85% in each case. In assay [3] (Table 2), this molecule showed a pEC50 of over 8.00. For the same molecule, the “herbicidal activity against … GALAP” value in assay [5] is “good or very good”.
In the case of `Cc1n[nH]c2c1C(c1cc(C(N)=S)cc(C(F)(F)F)c1)(C1CCC1)C(C#N)=C(N)O2` (racemic) [Compound 2.409], the “herbicidal activity against AMARE” value in assay [2] was “good (A good herbicidal activity is given at values of at least 70)”. Further, the “herbicidal activity against CHEAL” value in assay [4] is reported as “very good (a very good herbicidal activity is given at values of at least 85)”. Moreover, the “herbicidal activity against … GALAP” value in assay [5] is listed as “good or very good”. The “herbicidal activity against POLCO” value in assay [6] was “very good (a very good herbicidal activity is given at values of at least 85)”.
For `Cc1n[nH]c2c1C(c1cc(C#N)cc(C#N)c1)(C(C)C)C(C#N)=C(N)O2` (centres unmarked) [Compound 2.335], the pest or weed control at 1000 g/ha in assay [2], in assay [4] and in assay [6] was at least 85% in each case. In addition, the pEC50 in assay [3] (setting [7]) was over 8.00. In assay [5], the “herbicidal activity against … GALAP” value is reported as “good or very good”.
Take `Cc1n[nH]c2c1C(c1cc(Cl)cc(C#N)c1)(C1(F)CC1)C(C#N)=C(N)O2` (racemic) [Compound 2.400]: the “herbicidal activity against … GALAP” value in assay [5] is listed as “good or very good”.
For `CCOC(=O)COc1cc(Br)cc(C2(C3(F)CC3)C(C#N)=C(N)Oc3[nH]nc(C)c32)c1` (centres unmarked) [Compound 2.479], the pEC50 in assay [3] (Table 2) was over 7.00.
On the same count and under the same terms, in the case of `CCc1n[nH]c2c1C(c1ccc(Cl)cc1)(C1CC1)C(C#N)=C(N)O2` (centres unmarked) [Compound 2.114.] it was over 7.00.
In assay [3] (setting [7]), `Cc1n[nH]c2c1C(c1cc(Br)cc(OC(F)(F)F)c1)(C1CCC1)C(C#N)=C(N)O2` (centres unmarked) [Compound 2.307] gave a pEC50 of over 8.00.

Values taken from patent publication US9480259B2, “Pyrazolopyrans having herbicidal and pharmaceutical properties” (BASF SE, priority 2012, dated 2016).
